Source: patent publication US20260327250A1, “3-ETHYLAMINO-INDOLE DIMERS AS SEROTONERGIC AGENTS USEFUL FOR THE TREATMENT OF DISORDERS RELATED THERETO” (MINDSET PHARMA INC., priority 2022, published 2026)
Entries after “also recorded” stand apart in the source; their conditions may differ.

Columns and labels:
[1] = Mouse liver microsomes stability; details: Remaining Percentage after 60 min
Procedure: (§1) The concentrations of parent compounds in reaction systems were evaluated by LC-MS/MS for estimating the stability in pooled human, male rat and male mouse liver microsomes. The in vitro intrinsic clearances of test compounds were determined as well. Protocol
(§2) A master solution in the “Incubation Plate” containing phosphate buffer, ultra-pure H2O, MgCl2 solution and liver microsomes was made according to Table 6. The mixture was pre-warmed at 37° C. water bath for 5 minutes.
(§3) The reaction was started with the addition of 4 μL of 200 μM exemplary test compounds of the application or control compounds to each master solution to get the final concentration of 2 μM. This study was performed in duplicate.
(§4) Aliquots of 50 μL were taken from the reaction solution at 0, 15, 30, 45 and 60 minutes. The reaction solutions were stopped by the addition of 4 volumes of cold methanol with IS (100 nM alprazolam, 200 nM imipramine, 200 nM labetalol and 2 μM ketoprofen). Samples were centrifuged at 3,220 g for 40 minutes. Aliquot of 90 μL of the supernatant was mixed with 90 μL of ultra-pure H2O and then was used for LC-MS/MS analysis.
(§5) All calculations were carried out using Microsoft Excel. Peak area ratios of test compound to internal standard (listed in the below table) were determined from extracted ion chromatograms.
(§6) All calculations were carried out using Microsoft Excel. Peak areas were determined from extracted ion chromatograms. The slope value, k, was determined by linear regression of the natural logarithm of the remaining percentage of the parent drug vs. incubation time curve.
(§7) The in vitro half-life (in vitro t½) was determined from the slope value:
(§8) Conversion of the in vitro t½ (min) into the in vitro intrinsic clearance (in vitro CLint, in μL/min/mg proteins) was done using the following equation (mean of duplicate determinations):

[2] = Rat liver microsomes stability; details: Remaining Percentage after 60 min
Procedure: as §1, §2, §3, §4, §5, §6, §7, §8

in vitro = details: human, liver microsomes, Remaining Percentage after 60 min, human liver microsomes, without cofactors
Procedure: as §1, §2, §3, §4, §5, §6, §7, §8

Caco-2 cell monolayers = experiment: Intestinal mucosal permeation using Caco-2 cell monolayers; details: for Efflux ratio: Papp (B→A) / Papp (A→B); for Efflux ratio / Percentage recovery A→B / Percentage recovery B→A: 120 min, 5 µM; for Papp A→B / Percentage recovery A→B: apical to basolateral; for Papp A→B / Papp B→A: 5 μM, 37° C., 2 hours, pH 7.4; for Papp B→A / Percentage recovery B→A: basolateral to apical
Procedure: The Caco-2 cell culture medium was prepared consisting of Dulbecco's Modified Eagle's Medium (DMEM) with high glucose and L-glutamine supplemented with 10% FBS, 1× penicillin-streptomycin mixture and 1× non-essential amino acids (NEAA). • 2. The 50 μL of culture medium was added to each well of the Transwell insert. Transwell insert was removed from reservoir and 25 mL of culture medium was added. • 3. Incubated at 37° C., 5% CO2 for 1 hour. Plates were ready for cell seeding. • 4. The cells were cultivated in T-75 flasks in a cell culture incubator set at 37° C., 5% CO2, 95% relative humidity. The cells were allowed to reach 80-90% confluence before detaching and splitting. • 5. The cultivated cells were rinsed in T-75 flasks with 5 mL PBS. Aspirated off, 1.5 mL trypsin/EDTA was added, and incubated at 37° C. for approximately 5 to 10 minutes or until the cells detach and float. Trypsin/EDTA was inactivated by adding excess serum containing medium. • 6. The cell suspension was moved to a conical tube and cells were pelleted by centrifugation at 120×g for 10 minutes. • 7. The cells were resuspended in seeding medium at a density of 6.86×10^5 cells/mL. This cell concentration can be used to seed 2.40×10^5 cells/cm^2. […] Seeding and Feeding of Caco-2 Cells in Transwell Plates • 1. 50 μL of above cell suspension was added to each well of a previously prepared Transwell plate. • 2. The plate was incubated for 14-18 days. The medium was replaced every other day, beginning no sooner than 48 hours after initial plating. • 3. The procedure for medium changes was as follows. The plate was removed from incubator and placed in hood. The medium was aspirated from reservoir and each Transwell insert. 75 μL of culture medium was added to each well of Transwell inserts and 25 mL of culture medium was added to reservoir tray. The plate was returned to incubator.
When the 14-day Caco-2 cultured cells have reached confluence and are differentiated, they were ready to be used for transport studies. • 2. The medium was removed from reservoir and Transwell inserts. • 3. 75 μL of pre-warmed culture medium was added to each transwell insert and 25 mL of reservoir tray. • 4. The electrical resistance across the monolayer was measured using automated tissue resistance measuring system (World Precision Instruments, Sarasota, FL). • 5. The electrical resistance was recorded for each well. • 6. Once all wells were measured, the plate was returned to incubator. • 7. TEER of each well was calculated by the equation below. The TEER value of each well should be greater than 230 ohms-cm^2. TEER measurement (ohms)×Area of membrane (cm^2)=TEER value (ohm-cm^2)
The Caco-2 plate was removed from the incubator. Next, the monolayer was washed, and the volume exchanged two times using pre-warmed HBSS (10 mM HEPES, pH 7.4). Then the plate was incubated for 30 minutes at 37° C. • 1 mM stock solutions of control compounds and test compound(s) were prepared in DMSO and diluted with HBSS (10 mM HEPES, pH 7.4) to reach the final concentration of 5 μM. The final concentration of DMSO in the incubation system was 0.5%. Digoxin, prazosin and propranolol were used as control compounds in this assay. • 3. HBSS (10 mM HEPES, pH 7.4) was removed after 30 minutes pre-incubation. • 4. The rate of drug transport was incubated in the apical to basolateral direction. 75 μL of the control compounds and test compound was added to the Transwell insert (apical compartment). The wells were filled in the receiver plate (basolateral compartment) with 235 μL of HBSS (10 mM HEPES, pH 7.4). • 5. The rate of drug transport was determined in the basolateral to apical direction. 235 μL of the control compounds and test compound(s) was added to the receiver plate wells (basolateral compartment). The Transwell insert (apical compartment) was filled with 75 μL of HBSS (10 mM HEPES, pH 7.4). • 6. […] Incubated at 37° C. for 2 hours. • 8.

[3] = EEG during sleep; cited from earlier work
5-HT2 receptor = details: rat brain, daily administration; cited from earlier work
[4] = patients; psilocybin-assisted psychotherapy or supportive setting; cited from earlier work
[5] = tested on: brain's default mode network; details: humans, intravenous; cited from earlier work

Procedure for Dog plasma stability: (§9) The stock solution of test compound was prepared in DMSO and diluted at the final concentration of 200 μM.
(§10) • a. 2.5 μL of 200 μM or 1 mM test compound or control compound solution was spiked to 497.5 μL plasma to reach a final concentration of 1 μM or 5 μM. The final concentration of organic solvents was 0.5%. The assay was performed in duplicated. • b. The reaction samples were incubated at 37° C. at approximately 60 rpm in a water bath. • c. Aliquots of 50 μL were taken from the reaction samples at 0, 30, 60, 120, 180 and 240 minutes. The reaction was stopped by the addition of 7 volumes of cold acetonitrile containing internal standards (IS: 100 nM alprazolam, 200 nM imipramine, 200 nM labetalol and 2 μM ketoprofen). • d. All samples were vortexed for 2 minutes, followed by centrifugation at 3,220 g for 30 minutes to precipitate proteins. 100 μL of the supernatant was transferred to a new plate. The supernatant was diluted with ultrapure water according to the LC-MS signal response and peak shape.
(§11) Samples were Analyzed by LC-MS/MS. • LC system: Shimadzu • MS analysis: Triple Quad™ 6500+ from AB Inc (Canada) with an ESI interface • Column temperature: 40° C. • Column: Xselect® Hss T3 2.5μ (2.1×30 mm) coupled with preguard column • Mobile phase: 0.1% formic acid in water (A) and 0.1% formic acid in acetonitrile (B)
(§12) All calculations were carried out using Microsoft Excel. Remaining percentages of parent compounds at each time point were estimated by determining the peak area ratios from extracted ion chromatograms.
Procedure for Human plasma stability: as §9, §10, §11, §12
Procedure for Mouse plasma stability: as §9, §10, §11, §12
Procedure for Rat plasma stability: as §9, §10, §11, §12

## O=C(O)Cc1ccccc1Nc1c(Cl)cccc1Cl [Diclofenac]
[1]; with cofactors
  remaining at 1 h, 2 µM: 35.9%
[1]; without cofactors
  remaining at 1 h, 2 µM: 97.9%
[2]; with cofactors
  remaining at 1 h, 2 µM: 7.11%
[2]; without cofactors
  remaining at 1 h, 2 µM: 97.9%
In vitro
  remaining at 1 h, 2 µM: 95.9%

## CC[C@H](C)C(=O)O[C@H]1C[C@@H](C)C=C2C=C[C@H](C)[C@H](CC[C@@H]3C[C@@H](O)CC(=O)O3)[C@H]21 [Lovastatin, reference compound]
Rat plasma stability; rat plasma, 0 min
  Remaining Percentage: 100.00%
Rat plasma stability; rat, plasma
  remaining at 0.5 h: 0%
  remaining at 1 h: 0%
  remaining at 2 h: 0%
  remaining at 3 h: 0%
  remaining at 4 h: 0%
Dog plasma stability; dog plasma, 0 min
  Remaining Percentage: 100.00%
Dog plasma stability; dog, plasma
  remaining at 0.5 h: 101%
  remaining at 1 h: 64.8%
  remaining at 2 h: 40.8%
  remaining at 3 h: 22.4%
  remaining at 4 h: 11%

## COc1cc2nc(N3CCN(C(=O)c4ccco4)CC3)nc(N)c2cc1OC [Prazosin]
Caco-2 cell monolayers
  Efflux ratio: 3.28
  Papp A→B: 10.14 cm/s × 10^−6
  Percentage recovery A→B: 79.47%
  Papp B→A: 33.06 cm/s × 10^−6
  Percentage recovery B→A: 104.81%

## CC(C)NCC(O)COc1cccc2ccccc12 (stereo not drawn) [Propranolol]
Caco-2 cell monolayers
  Efflux ratio: 0.69
  Papp A→B: 33.5 cm/s × 10^−6
  Percentage recovery A→B: 91.34%
  Papp B→A: 23.09 cm/s × 10^−6
  Percentage recovery B→A: 92.59%

## CC(C)[N+](C)(CCOC(=O)C1c2ccccc2Oc2ccccc21)C(C)C [Propantheline, reference compound]
Mouse plasma stability; mouse plasma, 0 min
  Remaining Percentage: 100.00%
Mouse plasma stability; mouse plasma, 37° C., N.A. if no peak detected at 30 min
  T1/2: 34.36 min
Mouse plasma stability; mouse, plasma
  remaining at 0.5 h: 65.3%
  remaining at 1 h: 32.5%
  remaining at 2 h: 9.12%
  remaining at 3 h: 2.9%
  remaining at 4 h: 0.87%
Human plasma stability; human plasma, 37° C., N.A. if no peak detected at 30 min
  T1/2: 9.53 min
Human plasma stability; human, plasma
  remaining at 0.5 h: 18.7%
  remaining at 1 h: 1.28%
  remaining at 3 h: 0%
  remaining at 4 h: 0%

## CCN(CC)C(=O)[C@@H]1C=C2c3cccc4[nH]cc(c34)C[C@H]2N(C)C1 [LSD]
[3]
  sleep patterns: positively affect sleep patterns
5-HT2 receptor
  5-HT2 receptor density: selectively decreased 5-HT2 receptor density in the rat brain; also recorded: reduce 5-HT2 receptor density in rat brain
[4]
  relief of depression and anxiety: significant and sustained anti-depressant and anxiolytic effects
[5]
  oscillatory power: decreases in oscillatory power in areas of the brain's default mode network

## C[C@H]1O[C@@H](O[C@H]2[C@@H](O)C[C@H](O[C@H]3[C@@H](O)C[C@H](O[C@H]4CC[C@@]5(C)[C@H](CC[C@@H]6[C@@H]5C[C@@H](O)[C@]5(C)[C@@H](C7=CC(=O)OC7)CC[C@]65O)C4)O[C@@H]3C)O[C@@H]2C)C[C@H](O)[C@@H]1O [Digoxin]
Caco-2 cell monolayers
  Efflux ratio: 35.38
  Papp A→B: 0.53 cm/s × 10^−6
  Percentage recovery A→B: 86.58%
  Papp B→A: 18.89 cm/s × 10^−6
  Percentage recovery B→A: 104.27%
